In PubChem BioAssay (NCI):
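Growth conditions: 96-well plates. Treatment: test compound, 48 hours, 5 concentrations. Analysis: linear interpolation between bracketing concentrations; unreached endpoints set to highest concentration. GI50 = concentration required for 50% inhibition of growth. At the TGI there is no net growth.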

Tests used:
Assay in all cases: growth of human tumour cells (NCI), 48 h
COLO 205 colon = tested on: COLO 205 colon
HT29 colon = tested on: HT29 colon
MALME-3M melanoma = tested on: MALME-3M melanoma
OVCAR-5 ovarian = tested on: OVCAR-5 ovarian
OVCAR-8 ovarian = tested on: OVCAR-8 ovarian
RXF 393 renal = tested on: RXF 393 renal
SF-295 CNS = tested on: SF-295 CNS
SK-OV-3 ovarian = tested on: SK-OV-3 ovarian
UACC-257 melanoma = tested on: UACC-257 melanoma
T-47D breast = tested on: T-47D breast

Compound	TGI (COLO 205 colon) [µM]	TGI (HT29 colon) [µM]	TGI (MALME-3M melanoma) [µM]	TGI (OVCAR-5 ovarian) [µM]	TGI (OVCAR-8 ovarian) [µM]	TGI (RXF 393 renal) [µM]	TGI (SF-295 CNS) [µM]	TGI (SK-OV-3 ovarian) [µM]	TGI (UACC-257 melanoma) [µM]	TGI (T-47D breast) [µM]	GI50 (COLO 205 colon) [µM]	GI50 (HT29 colon) [µM]	GI50 (MALME-3M melanoma) [µM]	GI50 (OVCAR-8 ovarian) [µM]	GI50 (SF-295 CNS) [µM]	GI50 (T-47D breast) [µM]	GI50 (UACC-257 melanoma) [µM]	GI50 (OVCAR-5 ovarian) [µM]	GI50 (RXF 393 renal) [µM]	GI50 (SK-OV-3 ovarian) [µM]
Cc1ccc(-c2c(C#N)c(-c3ccc([N+](=O)[O-])cc3)c(C#N)c(=O)n2NS(=O)(=O)c2ccccc2)cc1	> 100	> 100	> 100	> 100	> 100	> 100	> 100	> 100	> 100											
CC1(C)[C@@H](Cn2cnc3c(Cl)nc(N)nc32)CC[C@@]1(C)CO	> 100			> 100		> 100	> 100	> 100	79.2	> 100										
CC1=CC(=O)CC2(C)CCC(C(C)CC(=O)CC(C)C)CC12 (centres undefined)	31.8	76.8	62.4	> 100	53.2	> 100	> 100		64.1											
Nc1nc(Nc2ccc(Cl)cc2)sc1C(=O)c1cccs1	> 100	> 100	> 100	> 100		42		50	> 100	> 100										
O=C(OCc1ccccc1)C(Cc1ccccc1)N(Cc1ccccc1)Cc1ccccc1 (centres undefined)	> 100	> 100	> 100	> 100	> 100	> 100	> 100	> 100	> 100											
COC(=O)C1(Cc2ccc3c(c2)CCC3)Cc2cc3c(cc2C1)CCC3	> 100	89.3		> 100	> 100	68.8	> 100	> 100	62.2	60.7										
Cc1c(C#N)c(N)n(C2OCC(O)C(O)C2O)c(=S)c1C#N (centres undefined)		> 100	> 100	> 100	> 100	> 100	> 100	> 100	> 100	> 100										
CSC(SC)=C1C(=O)N(c2ccccc2)N=C1C	36.3	> 100	58.8	> 100	> 100	74.4	99.6	91.9	> 100											
COC(=O)C1=C(O)C(C(=O)OC)[C@@]2(O)[C@@H](C(=O)OC)[C@H](C)[C@@H](C)[C@@H]1[C@@H]2C(=O)OC (some centres undefined)		> 100	> 100	> 100		72.3		> 100	> 100	> 100										
CN(C)P(=O)(Oc1occc1C(O)Cc1ccccc1)N(C)C (centres undefined)	> 100		> 100	> 100	> 100	> 100	> 100	> 100	> 100	> 100										
COc1cc(CNc2nc3cc(C(F)(F)F)ccc3nc2-c2ccccc2)cc(OC)c1OC	37.3	> 100	72		> 100	51.7	> 100		> 100	6.62										
COc1cc2c(c(O)c1O)-c1ccc(OC)c(=O)cc1C(NC(C)=O)CC2 (centres undefined)	12.6	> 70.3	> 100	> 100	> 100	43.8	41.4	60.4	> 100											
O=C1CCc2ccc3c(c21)CC1(Cc2ccccc2C1)C3	> 100	22	70.5	44.2	> 100		38	> 100	35.7	59.2										
CCN1C(=O)N(CC)C2Nn3c(s/c(=C4\C(=O)N(C)c5ccccc54)c3=O)=NC21 (centres undefined)	> 100	> 100	> 100		> 100		> 100		> 100	> 100	2.26	2.33	3.9	4.3	2.83	3.14	7.71			
COc1ccc(-c2csc(NC(=O)CSc3nc(C)c(-c4ccccc4)n3Nc3ccccc3)n2)cc1	> 100			> 100	> 100	> 100	> 100	> 100	> 100	7.49	9.7			3.48	0.566	2.82	> 100	> 100	> 100	> 100
CC/C(Cl)=N\OC(=O)Nc1ccc(F)c([N+](=O)[O-])c1	6.58	> 57.8	4.35	44.9	32.8	30.4	41.6	34.5	35.1											
CC1(C)OC2CC(=O)OCC23C1CC(=O)C1(C)C3CCC2(C)C(c3ccoc3)OC(=O)C3OC321 (centres undefined)	> 125	> 125	> 125	> 125	7.03	> 125	> 125	> 125	> 125											
Cc1cn([C@H]2C[C@](C)(CO)N(C)O2)c(=O)[nH]c1=O	> 100	> 100	> 100	> 100		> 100	> 100	> 100	> 100	> 100										
C[C@]12CC[C@H](O)C=C1CC[C@@H]1[C@@H]2CC[C@]2(C)C(c3ccc(=O)oc3)CC[C@]12O (some centres undefined)	0.188	0.293	0.014	0.321	0.0527	< 0.0125	0.0289	0.065	0.0777											
CC(C)(C)OC(=O)n1c(-c2ccccc2F)cc(=O)c2cc3c(cc21)OCO3		0.368	> 100	> 100	20.4	> 40.3	> 100			> 100										
O=C(O)CC(NC(=O)/C(=C/c1ccccc1O)NC(=O)c1ccccc1)C(=O)O (centres undefined)	> 100	> 100	> 100	> 100	> 100		> 100	> 100	> 100	> 100										
O=[N+]([O-])c1ccc(C2=Nc3ccccc3SC(c3ccccc3)C2)cc1 (centres undefined)	31.8			36.6	40.3	40	46.3	46	51.6											
